≈ marks a conversion by molar mass, not a printed value. Counter-ions that a name gives are not always drawn.
Legend:
Streptococcus pneumoniae = experiment: MIC, Streptococcus pneumoniae; type: cell-based; details: agar with 5% defibrinated horse blood, 5% carbon dioxide, 48 hours
Description: (§1) The following results were obtained on a standard in-vitro test system. The activity is described in terms of the minimum inhibitory concentration (MIC) determined by the agar-dilution technique with an inoculum size of 10^4 CFU/spot. Typically, compounds are active in the range 0.01 to 256 μg/ml.
(§2) Streptococci and enterococci were tested on agar supplemented with 5% defibrinated horse blood, an inoculum of 10^4 CFU/spot and an incubation temperature of 37° C. in an atmosphere of 5% carbon dioxide for 48 hours—blood is required for the growth of some of the test organisms. Fastidious Gram negative organisms were tested in Mueller-Hinton broth, supplemented with hemin and NAD, grown aerobically for 24 hours at 37° C., and with an inoculum of 5×10^4 CFU/well.

[1] = test system: Staphylococcus aureus MSQS (methicillin sensitive and quinolone sensitive); experiment: MIC by agar-dilution, Staphylococcus aureus MSQS; type: cell-based; details: inoculum 10^4 CFU/spot, 37° C., 24 hours
Description: as §1
(§3) Staphylococci were tested on agar, using an inoculum of 10^4 CFU/spot and an incubation temperature of 37° C. for 24 hours—standard test conditions for the expression of methicillin resistance.

Moraxella catarrhalis = experiment: MIC, Moraxella catarrhalis; type: cell-based; details: Mueller-Hinton broth with hemin and NAD, 24 hours, 5×10^4 CFU/well
Description: as §1, §2

Haemophilus influenzae = experiment: MIC, Haemophilus influenzae; type: cell-based; details: Mueller-Hinton broth with hemin and NAD, 24 hours, 5×10^4 CFU/well
Description: as §1, §2

[2] = test system: Linezolid Resistant Streptococcus pneumoniae; experiment: MIC, Linezolid Resistant Streptococcus pneumoniae; type: cell-based; details: agar with 5% defibrinated horse blood, 5% carbon dioxide, 48 hours
Description: as §1, §2

MAO-A = target: T1, MAO-A (Homo sapiens, UniProt P21397); experiment: MAO-A standard in-vitro assay, human liver enzyme expressed in yeast; type: biochemical; details: read-out: Ki against MAO-A
T1 construct: made in house; host or cells: yeast
T1 sequence (P21397 1-527): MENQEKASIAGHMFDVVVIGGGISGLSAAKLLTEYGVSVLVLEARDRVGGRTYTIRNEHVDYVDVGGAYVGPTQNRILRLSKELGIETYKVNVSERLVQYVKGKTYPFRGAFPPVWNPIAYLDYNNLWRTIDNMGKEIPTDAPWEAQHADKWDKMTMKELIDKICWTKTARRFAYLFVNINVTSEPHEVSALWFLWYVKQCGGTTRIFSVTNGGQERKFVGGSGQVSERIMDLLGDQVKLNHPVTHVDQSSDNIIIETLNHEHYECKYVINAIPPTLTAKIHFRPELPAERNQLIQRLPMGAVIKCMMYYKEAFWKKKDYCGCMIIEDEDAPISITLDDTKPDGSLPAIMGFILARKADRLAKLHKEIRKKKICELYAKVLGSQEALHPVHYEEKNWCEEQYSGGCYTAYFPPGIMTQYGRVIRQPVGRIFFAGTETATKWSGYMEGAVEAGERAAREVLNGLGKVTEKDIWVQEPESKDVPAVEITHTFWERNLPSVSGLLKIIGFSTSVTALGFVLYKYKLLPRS
Description: The activity of the compounds of the invention against MAO-A was tested using a standard in-vitro assay based on human liver enzyme expressed in yeast as described in Biochem. Biophys. Res. Commun. 1991, 181, 1084-1088.

[3] = test system: Staphylococcus aureus MRQR (methicillin resistant and quinolone resistant); experiment: MIC by agar-dilution, Staphylococcus aureus MRQR; type: cell-based; details: inoculum 10^4 CFU/spot, 37° C., 24 hours
Description: as §1, §3

[4] = test system: Staphylococci, Streptococci, enterococci, fastidious Gram negative organisms; experiment: standard in-vitro test system, antibacterial activity (MIC); type: cell-based; details: result in words
Description: The pharmaceutically-acceptable compounds of the present invention are useful antibacterial agents having a good spectrum of activity in vitro against standard Gram-positive organisms, which are used to screen for activity against pathogenic bacteria. […] The antibacterial spectrum and potency of a particular compound may be determined in a standard test system.
as §1, §3, §2

Row | Compound | melting point [°C] | further results
1 | CC[C@H](C)[C@H](N)C(=O)OCCOC[C@@H]1CC(c2ccc(-c3ccc(N4C[C@H](Cn5ccnn5)OC4=O)cc3F)cn2)=NO1 (as salt: HCl) [Example 17, 2-{[(5S)-3-(5-{2-Fluoro-4-[(5R)-2-oxo-5-(1H-1,2,3-triazol-1-ylmethyl)-1,3-oxazolidin-3-yl]phenyl}pyridin-2-yl)-4,5-dihydroisoxazole-5-yl]methoxy}ethyl L-isoleucinate] | 119 | 
2 | CN(C)CC(O)COC[C@@H]1CC(c2ccc(-c3ccc(N4C[C@H](Cn5ccnn5)OC4=O)cc3F)cn2)=NO1 (some centres unmarked) (as salt: hydrochloride) [Example 19] | 110 to 115 | 
3 | O=C1OC(Cn2ccnn2)CN1c1ccc(-c2ccc(C3=NO[C@H](COCCN4CCOCC4)C3)nc2)c(F)c1 (stereo in doubt) [Example 10, (5S)-3-[3-Fluoro-4-(6-{(5S)-5-[(2-morpholin-4-ylethoxy)methyl]-4,5-dihydroisoxazole-3-yl}pyridin-3-yl)phenyl]-5-(1H-1,2,3-triazol-1-ylmethyl)-1,3-oxazolidin-2-one] | 171 | 
4 | O=C(O)COC[C@@H]1CC(c2ccc(-c3ccc(N4C[C@H](Cn5ccnn5)OC4=O)cc3F)cn2)=NO1 [Example 3, {[(5S)-3-(5-{2-Fluoro-4-[(5R)-2-oxo-5-(1H-1,2,3-triazol-1-ylmethyl)-1,3-oxazolidin-3-yl]phenyl}pyridin-2-yl)-4,5-dihydroisoxazole-5-yl]methoxy}acetic acid] | 190 | 
5 | CNC(=O)COC[C@@H]1CC(c2ccc(-c3ccc(N4C[C@H](Cn5ccnn5)OC4=O)cc3F)cn2)=NO1 [Example 4, 2-{[(5S)-3-(5-{2-Fluoro-4-[(5R)-2-oxo-5-(1H-1,2,3-triazol-1-ylmethyl)-1,3-oxazolidin-3-yl]phenyl}pyridin-2-yl)-4,5-dihydroisoxazole-5-yl]methoxy}-N-methylacetamide] | 153 to 156 | MIC (Streptococcus pneumoniae): 0.06 µg/mL (≈ 0.118 µM); MIC [1]: 0.25 µg/mL (≈ 0.491 µM); MIC (Moraxella catarrhalis): 0.5 µg/mL (≈ 0.981 µM); MIC (Haemophilus influenzae): 8 µg/mL (≈ 15.7 µM); MIC [2]: 1 µg/mL (≈ 1.96 µM); Ki (MAO-A): 8 µM; MIC [3]: 0.5 µg/mL (≈ 0.981 µM)
6 | CN(C)C(=O)COC[C@@H]1CC(c2ccc(-c3ccc(N4C[C@H](Cn5ccnn5)OC4=O)cc3F)cn2)=NO1 [Example 5, 2-{[(5S)-3-(5-{2-Fluoro-4-[(5R)-2-oxo-5-(1H-1,2,3-triazol-1-ylmethyl)-1,3-oxazolidin-3-yl]phenyl}pyridin-2-yl)-4,5-dihydroisoxazole-5-yl]methoxy}-N,N-dimethylacetamide] | 166 to 168 | 
7 | CN1CCN(C(=O)COC[C@@H]2CC(c3ccc(-c4ccc(N5C[C@H](Cn6ccnn6)OC5=O)cc4F)cn3)=NO2)CC1 [Example 6, (5R)-3-{3-Fluoro-4-[6-((5S)-5-{[2-(4-methylpiperazin-1-yl)-2-oxoethoxy]methyl}-4,5-dihydroisoxazole-3-yl)pyridin-3-yl]phenyl}-5-(1H-1,23-triazol-1-ylmethyl)-1,3-oxazolidin-2-one] | 165 to 175 | 
8 | O=C1O[C@@H](Cn2ccnn2)CN1c1ccc(-c2ccc(C3=NO[C@H](COCCCO)C3)nc2)c(F)c1 [Example 7, (5R)-3-[3-Fluoro-4-(6-{(5S)-5-[(3-hydroxypropoxy)methyl]-4,5-dihydroisoxazole-3-yl}pyridin-3-yl)phenyl]-5-(1H-1,23-triazol-1-ylmethyl)-1,3-oxazolidin-2-one] | 176 | 
9 | O=C1O[C@@H](Cn2ccnn2)CN1c1ccc(-c2ccc(C3=NO[C@H](COCCO)C3)nc2)c(F)c1 [Example 8] | 162 | 
10 | CS(=O)(=O)NCCOC[C@@H]1CC(c2ccc(-c3ccc(N4C[C@H](Cn5ccnn5)OC4=O)cc3F)cn2)=NO1 [Example 13, N-(2-{[(5S)-3-(5-{2-Fluoro-4-[(5R)-2-oxo-5-(1H-1,2,3-triazol-1-ylmethyl)-1,3-oxazolidin-3-yl]phenyl}pyridin-2-yl)-4,5-dihydroisoxazole-5-yl]methoxy}ethyl)methanesulfonamide] | 170 | 
11 | CC(=O)NCCOC[C@@H]1CC(c2ccc(-c3ccc(N4C[C@H](Cn5ccnn5)OC4=O)cc3F)cn2)=NO1 [Example 14, N-(2-{[(5S)-3-(5-{2-Fluoro-4-[(5R)-2-oxo-5-(1H-1,2,3-triazol-1-ylmethyl)-1,3-oxazolidin-3-yl]phenyl}pyridin-2-yl)-4,5-dihydroisoxazole-5-yl]methoxy}ethyl)acetamide] | 134 | 
12 | N#CCOC[C@@H]1CC(c2ccc(-c3ccc(N4C[C@H](Cn5ccnn5)OC4=O)cc3F)cn2)=NO1 [Example 15, {[(5S)-3-(5-{2-Fluoro-4-[(5R)-2-oxo-5-(1H-1,2,3-triazol-1-ylmethyl)-1,3-oxazolidin-3-yl]phenyl}pyridin-2-yl)-4,5-dihydroisoxazole-5-yl]methoxy}acetonitrile] | 90 to 115 | 
13 | CC(C)(O)COC[C@@H]1CC(c2ccc(-c3ccc(N4C[C@H](Cn5ccnn5)OC4=O)cc3F)cn2)=NO1 [Example 16] | 180 to 187 | 
14 | CN(CCOC[C@@H]1CC(c2ccc(-c3ccc(N4C[C@H](Cn5ccnn5)OC4=O)cc3F)cn2)=NO1)CC(=O)O [Example 20, N-(2-{[(5S)-3-(5-{2-Fluoro-4-[(5R)-2-oxo-5-(1H-1,2,3-triazol-1-ylmethyl)-1,3-oxazolidin-3-yl]phenyl}pyridin-2-yl)-4,5-dihydroisoxazole-5-yl]methoxy}ethyl)-N-methylglycine] | 135 to 140 | 
15 | CC(C)(C)OC(=O)COC[C@@H]1CC(c2ccc(-c3ccc(N4C[C@H](Cn5ccnn5)OC4=O)cc3F)cn2)=NO1 [Pro-drug Example 1, tert-Butyl {[(5S)-3-(5-{2-fluoro-4-[(5R)-2-oxo-5-(1H-1,2,3-triazol-1-ylmethyl)-1,3-oxazolidin-3-yl]phenyl}pyridin-2-yl)-4,5-dihydroisoxazole-5-yl]methoxy}acetate] | 186 | 
16 | C=CCOC[C@@H]1CC(c2ccc(-c3ccc(N4C[C@H](Cn5ccnn5)OC4=O)cc3F)cn2)=NO1 [compound 2, (5R)-3-[4-(6-{(5S)-5-[(Allyloxy)methyl]-4,5-dihydroisoxazole-3-yl}pyridin-3-yl)-3-fluorophenyl]-5-(1H-1,2,3-triazol-1-ylmethyl)-1,3-oxazolidin-2-one] | 162 | antibacterial activity [4]: have antibacterial activity
17 | [N-]=[N+]=NCCOC[C@@H]1CC(c2ccc(-c3ccc(N4C[C@H](Cn5ccnn5)OC4=O)cc3F)cn2)=NO1 [compound 9] | 148 | antibacterial activity [4]: have antibacterial activity

From patent US20070208062A1, “3-(4-(2-DIHYDROISOXAZOL-3-YLPYRIDIN-5-YL)PHENYL)-5-TRIAZOL-1-YLMETHYLOXAZOLIDIN-2-ONE DERIVATIVES AS MAO INHIBITORS FOR THE TREATMENT OF BACTERIAL INFECTIONS” (ASTRAZENECA AB, priority 2004, published 2007)
